Measurements as given in patent US11389456B2, “Compounds and methods for treating oxalate-related diseases” (OxaluRx, Inc., priority 2018, dated 2022).

System: CD1 mice administered 1% ethylene glycol
Test: Mouse ethylene glycol model of hyperoxaluria, urinary oxalate
Format: in vivo
Conditions: mice, once-daily oral gavage, 100 mg/kg
Procedure: Mouse Models of Hyperoxaluria for Determining In Vivo Efficacy of hGOX Inhibitors
Male CD1 mice, 6-8 weeks of age (Charles River Labs, Wilmington, Mass.) were administered 1% ethylene glycol ad libitum their drinking water for 14 days. The mice were housed in individual cages, fed ad libitum and 24-h urine collections were initiated on days 1, 5, 9 and 14 using a 15-rack metabolic cage system equipped with a CCS2000 chiller system (Hatteras Instruments, Cary, N.C.) to maintain the samples at 4° C. during collection. Hydrochloric acid (100 μL of 6N) added to the collection vials to acidify the samples and prevent degradation of oxalate before evaluation.
Urine samples were maintained at 4° C. and urinary oxalate concentrations were determined within 24 hours of sample collection using a Trinity Biotech oxalate assay kit (Catalog #591-D). The assay was an enzymatic method based on the oxidation of oxalate by oxalate oxidase followed by measurement of hydrogen peroxide (H2O2) produced during the peroxidase-catalyzed reaction. Briefly, a 1-mL aliquot of each sample was diluted with an equal volume of assay diluent to bring the pH to between 5.0 and 7.0, then placed into purifier tubes (provided in the kit) and mixed for 5 min. The tubes were centrifuged for 5 min at 2000 rpm (1500×g) and the supernatants collected for the oxalate assay. The procedure was specific for oxalate with no special equipment and was easily adaptable for clinical automated analyzers. Each assay included a standard curve prepared with a standardized oxalate control sample (included in the kit) and internal assay control samples for both a normal (0.2-0.3 mmol/L) and elevated (0.86-1.21 mmol/L) level of oxalate.
To evaluate in vivo efficacy, mice were dosed by once-daily oral gavage of compound I-002 in an appropriate vehicle (e.g., phosphate-buffered saline, pH 7.4) at a dosage of 100 mg/kg. […]
The effect of example I-001 in the ethylene glycol model using CD-1 mice was evaluated by twice-daily, oral gavage dosing at 50 mg/kg for 6 days (days 5-11). […]

CCOC(=O)c1nn[nH]c1Sc1ccc(Cl)cc1 [Example I-002, Ethyl 5-((4-chlorophenyl)thio)-1H-1,2,3-triazole-4-carboxylate]
reduction in urinary oxalate: statistically significant reduction
